From patent US20060165644A1, “Cosmetics” (Fancl Corporation, priority 2002, published 2006)

Tested on: Pseudomonas aeruginosa, Escherichia coli, Staphylococcus aureus
Test: Evaluation of reduction effect for inoculated bacteria
Type: cell-based
Conditions: about 10^7 bacteria per 1 g sample; 7 days at 25° C.; plate count
Procedure: Pseudomonas aeruginosa, Escherichia coli, Staphylococcus aureus of about 10^7 were inoculated to the samples shown in Table 3 per 1 g of the respective samples. The viable microbe cell number were measured by plate count method after cultivation for 7 days at 25° C.
The viable microbe cell number on seventh day was calculated as a residual rate by defining the number of inoculated microbes to 100%, and the antibacterial activity of the samples was evaluated by classifying the residual rate into standards of four ranks as follow.

| SMILES | Antibacterial activity (residual rate of viable microbes) |
| --- | --- |
| CC(O)CCO (centres unmarked) [Sample 9, 1,3-butylene glycol] | ◯ (Residual rate lower than 10%, not lower than 0.01%) |
| CCCC(O)CO (centres unmarked) [Sample 10, 1,2-pentanediol] | ◯ (Residual rate lower than 10%, not lower than 0.01%) |
